Each compound was assayed on batrachotoxin (BTX) binding site (binding site 2) of the sodium channel (assay: Bond test on the sodium channel, binding site 2 (BTX bond), [3H]-batrachotoxinin A20 α-benzoate displacement). Conditions: rat cerebrocortex synaptosomes.
With `COC(=O)C(Cc1c[nH]c2ccccc12)NC(=O)C1=NOC2(CCN(S(=O)(=O)c3ccc(OC(F)(F)F)cc3)CC2)C1` (stereo not drawn) [Example 1, 3-(1H-indo1-3-yl)-2-{[8-(4-trifluoromethoxy-benzene-sulphonyl)-1-oxa-2,8-diaza-spiro[4,5]dec-2-ene-3-carbonyl]-amino}-propionic acid methyl ester] the “BTX bond, 10 μM, % inhibition” value was 68%. For `CCOP(=O)(Cc1ccc(NC(=O)C2=NOC3(CCN(S(=O)(=O)Cc4ccccc4)CC3)C2)cc1)OCC` [Example 2], the “BTX bond, 10 μM, % inhibition” value was 55%. In the case of `O=C(C1=NOC2(CCN(S(=O)(=O)c3cccs3)CC2)C1)N1CCN(C2CCCCCC2)CC1` [Example 3, (4-cycloheptyl-piperazin-l-yl)-[8-(thiophene-2-sulphonyl)-1-oxa-2,8-diaza-spiro [4,5]dec-2-en-3-yl]-methanone], the “BTX bond, 10 μM, % inhibition” value is reported as 78%. `O=C(NC1CCCC1)C1=NOC2(CCN(C(=O)c3ccc([N+](=O)[O-])cc3Cl)CC2)C1` [Example 5, 8-(2-chloro-4-nitro-benzoyl)-1-oxa-2,8-diaza-spiro[4,5]dec-2-ene-3-carboxylic acid cyclopentylamide] was tested, and the “BTX bond, 10 μM, % inhibition” value was 64%. In the case of `O=C(C1=NOC2(CCN(S(=O)(=O)Cc3ccccc3)CC2)C1)N1CCN(Cc2ccc3ccccc3c2)CC1` [Example 6, (4-naphthalen-2-ylmethyl-piperazin-l-yl)-(8-phenylmethane-sulphonyl-1-oxa-2,8 diaza-spiro[4,5]dec-2-en-3-yl)-methanone], the “BTX bond, 10 μM, % inhibition” value is reported as 49%. With `CC(NC(=O)C1=NOC2(CCN(S(=O)(=O)c3cccs3)CC2)C1)c1ccccc1` (stereo not drawn) [Example 8, 8-(thiophene-2-sulphonyl)-1-oxa-2,8-diaza-spiro[4,5]dec-2-ene-3-carboxylic acid (1-phenyl-ethyl)-amide] the “BTX bond, 10 μM, % inhibition” value was 63%. `O=C(NCCN1CCCC1)C1=NOC2(CCN(S(=O)(=O)c3ccc(F)c(Cl)c3)CC2)C1` [Example 11] was tested, and the “BTX bond, 10 μM, % inhibition” value was 69%. For `O=C(C1=NOC2(CCN(S(=O)(=O)c3cccs3)CC2)C1)N1CCN(CCCc2ccccc2)CC1` [Example 14, [4-(3-phenyl-propyl)-piperazin-l-yl]-[8-(thiophene-2-sulphonyl)-1-oxa-2,8-diaza-spiro[4,5]dec-2-en-3-yl]-methanone], the “BTX bond, 10 μM, % inhibition” value was 79%. With `CC1CCCCN1CCCNC(=O)C1=NOC2(CCN(S(=O)(=O)c3cc(Cl)ccc3Cl)CC2)C1` (stereo not drawn) [Example 15, 8-(2,5-dichloro-benzenesulphonyl)-1-oxa-2,8-diaza-spiro[4,5]dec-2-ene-3-carboxylic acid[3-(2-methyl-piperidin-1-yl)-propyl]-amide] the “BTX bond, 10 μM, % inhibition” value was 88%. `CN(CCc1c[nH]c2ccccc12)C(=O)C1=NOC2(CCN(S(=O)(=O)c3ccc(OC(F)(F)F)cc3)CC2)C1` [Example 16, 8-(4-trifluoromethoxy-benzenesulphonyl)-1-oxa-2,8-diaza-spiro[4,5]dec-2-ene-3 carboxylic acid [2-(1 H-indo1-3-yl)-ethyl]-methyl-amide] was tested, and the “BTX bond, 10 μM, % inhibition” value was 60%. `Cc1ccc(S(=O)(=O)N2CCC3(CC2)CC(C(=O)N(CCc2ccccc2)Cc2ccccc2)=NO3)cc1` [Example 18, 8-(toluene-4-sulphonyl)-1-oxa-2,8-diaza-spiro[4,5]dec-2-ene-3-carboxylic acid benzyl-phenethyl-amide] was tested, and the “BTX bond, 10 μM, % inhibition” value was 53%. In the case of `Cc1ccc([N+](=O)[O-])cc1S(=O)(=O)N1CCC2(CC1)CC(C(=O)NCCN(C)C)=NO2` [Example 19, 8-(2-methyl-5-nitro-benzenesulphonyl)-1-oxa-2,8-diaza-spiro[4,5]dec-2-ene-3 carboxylic acid (2-dimethylamino-ethyl)-amide], the “BTX bond, 10 μM, % inhibition” value is reported as 66%. `O=C(NC1CCCC1OCc1ccccc1)C1=NOC2(CCN(S(=O)(=O)Cc3ccccc3)CC2)C1` (stereo not drawn) [Example 20, 8-phenylmethanesulphonyl-1-oxa-2,8-diaza-spiro[4,5]dec-2-ene-3-carboxylic acid (2-benzyloxy-cyclopentyl)-amide] was tested, and the “BTX bond, 10 μM, % inhibition” value was 69%. In the case of `O=C(NCC1COc2ccccc2O1)C1=NOC2(CCN(S(=O)(=O)c3cccs3)CC2)C1` (stereo not drawn) [Example 21, 8-(thiophene-2-sulphonyl)-1-oxa-2,8-diaza-spiro[4,5]dec-2-ene-3-carboxylic acid (2,3-dihydro-benzo[1,4]dioxin-2-ylmethyl)-amide], the “BTX bond, 10 μM, % inhibition” value is reported as 63%. With `Cc1ccc(C(C)NC(=O)C2=NOC3(CCN(S(=O)(=O)c4cccs4)CC3)C2)cc1` (stereo not drawn) [Example 23, 8-(thiophene-2-sulphonyl)-1-oxa-2,8-diaza-spiro[4,5]dec-2-ene-3-carboxylic acid (1-p-tolyl-ethyl)-amide] the “BTX bond, 10 μM, % inhibition” value was 60%. For `O=C(NCc1cccc(F)c1)C1=NOC2(CCN(S(=O)(=O)c3cccs3)CC2)C1` [Example 24, 8-(thiophene-2-sulphonyl)-1-oxa-2,8-diaza-spiro[4,5]dec-2-ene-3-carboxylic acid 3-fluorobenzylamide], the “BTX bond, 10 μM, % inhibition” value was 41%. In the case of `O=C(NC1CCN(Cc2ccc(C(F)(F)F)cc2)C1)C1=NOC2(CCN(S(=O)(=O)c3cccs3)CC2)C1` (stereo not drawn) [Example 26, 8-(thiophene-2-sulphonyl)-1-oxa-2,8-diaza-spiro[4,5]dec-2-ene-3-carboxylic acid [1-(4-trifluoromethyl-benzyl)-pyrrolidin-3-yl]-amide], the “BTX bond, 10 μM, % inhibition” value is reported as 84%. In the case of `Cc1ccccc1N1CCN(C(=O)C2=NOC3(CCN(S(=O)(=O)c4cccs4)CC3)C2)CC1` [Example 27, [8-(thiophene-2-sulphonyl)-1-oxa-2,8-diaza-spiro[4,5]dec-2-en-3-yl]-(4-o-tolyl-piperazin-1-yl)-methanone], the “BTX bond, 10 μM, % inhibition” value is reported as 74%. For `Cc1ccc(S(=O)(=O)N2CCC3(CC2)CC(C(=O)N(CCC#N)Cc2ccccc2)=NO3)cc1` [Example 28, 8-(toluene-4-sulphonyl)-1-oxa-2,8-diaza-spiro[4,5]dec-2-ene-3-carboxylic acid benzyl-(2-cyano-ethyl)-amide], the “BTX bond, 10 μM, % inhibition” value was 52%. `O=C(NCc1ccc2c(c1)OCO2)C1=NOC2(CCN(S(=O)(=O)c3ccc(Cl)s3)CC2)C1` [Example 30, 8-(5-chloro-thiophene-2-sulphonyl)-1-oxa-2,8-diaza-spiro[4,5]dec-2-ene-3-carboxylic acid (benzo[1,3]dioxol-5-ylmethyl)-amide] was tested, and the “BTX bond, 10 μM, % inhibition” value was 56%. `Cc1cccc(N2CCN(C(=O)C3=NOC4(CCN(S(=O)(=O)c5cccs5)CC4)C3)CC2C)c1` (stereo not drawn) [Example 31, (3-methyl-4-m-tolyl-piperazin-l-yl)-[8-(thiophene-2-sulphonyl)-1-oxa-2,8-diaza-spiro[4,5]dec-2-en-3-yl]-methanone] was tested, and the “BTX bond, 10 μM, % inhibition” value was 80%. For `Cc1ccc(S(=O)(=O)N2CCC3(CC2)CC(C(=O)N2CCN(C(C)c4ccccc4)CC2)=NO3)cc1` (stereo not drawn) [Example 32, [4-(1-phenyl-ethyl)-piperazin-l-yl]-[8-(toluene-4-sulphonyl)-1-oxa-2,8-diaza-spiro[4,5]dec-2-en-3-yl]-methanone], the “BTX bond, 10 μM, % inhibition” value was 66%. `Cc1ccc(S(=O)(=O)N2CCC3(CC2)CC(C(=O)N2CCN(c4ccc(C)cc4C)CC2)=NO3)cc1` [Example 33, [4-(2,4-dimethyl-phenyl)-piperazin-l-yl]-[8-(toluene-4-sulphonyl)-1-oxa-2,8-diazaspiro[4,5]dec-2-en-3-yl]methanone] was tested, and the “BTX bond, 10 μM, % inhibition” value was 67%. In the case of `O=C(C1=NOC2(CCN(S(=O)(=O)c3cccc(C(F)(F)F)c3)CC2)C1)N1CCN(Cc2ccc3ccccc3c2)CC1` [Example 35, (4-naphthalen-2-ylmethyl-piperazin-l-yl)-[8-(3-trifluoromethyl-benzenesulphonyl)-1-oxa-2,8-diaza-spiro[4,5]dec-2-en-3-yl]-methanone], the “BTX bond, 10 μM, % inhibition” value is reported as 50%. With `Cc1ccc(F)cc1S(=O)(=O)N1CCC2(CC1)CC(C(=O)NCCN(C)C)=NO2` [Example 37, 8-(5-fluoro-2-methyl-benzenesulphonyl)-1-oxa-2,8-diaza-spiro[4,5]dec-2-ene-3-carboxylic acid (2-dimethylamino-ethyl)-amide] the “BTX bond, 10 μM, % inhibition” value was 70%. For `O=C(NCc1cccs1)C1=NOC2(CCN(S(=O)(=O)c3ccc([N+](=O)[O-])cc3)CC2)C1` [Example 38, 8-(4-nitro-benzenesulphonyl)-1-oxa-2,8-diaza-spiro[4,5]dec-2-ene-3-carboxylic acid (thiophen-2-ylmethyl)-amide], the “BTX bond, 10 μM, % inhibition” value was 65%. For `O=C(NC(c1ccccc1)c1ccccc1)C1=NOC2(CCN(S(=O)(=O)c3ccc(Cl)s3)CC2)C1` [Example 40, 8-(5-chloro-thiophene-2-sulphonyl)-1-oxa-2,8-diaza-spiro[4,5]dec-2-ene-3 carboxylic acid benzhydryl-amide], the “BTX bond, 10 μM, % inhibition” value was 47%. `Cc1ccc(C(C)NC(=O)C2=NOC3(CCN(S(=O)(=O)c4ccc(C)cc4)CC3)C2)cc1` (stereo not drawn) [Example 45, 8-(toluene-4-sulphonyl)-1-oxa-2,8-diaza-spiro[4,5]dec-2-ene-3-carboxylic acid (1-p-tolyl-ethyl)-amide] was tested, and the “BTX bond, 10 μM, % inhibition” value was 49%. In the case of `O=C(NC1CCCC1OCc1ccccc1)C1=NOC2(CCN(S(=O)(=O)c3cccs3)CC2)C1` (stereo not drawn) [Example 47, 8-(thiophene-2-sulphonyl)-1-oxa-2,8-diaza-spiro[4,5]dec-2-ene-3-carboxylic acid (2-benzyloxy-cyclopentyl)-amide], the “BTX bond, 10 μM, % inhibition” value is reported as 71%. `CC(=O)N1CCC2(CC1)CC(C(=O)NCc1ccccc1)=NO2` [Example 48, 8-acetyl-1-oxa-2,8-diaza-spiro[4,5]dec-2-ene-3-carboxylic acid benzylamide] was tested, and the “BTX bond, 10 μM, % inhibition” value was 43%. For `O=C(NC1CCN(Cc2ccc3ccccc3c2)C1)C1=NOC2(CCN(S(=O)(=O)c3ccc(Cl)s3)CC2)C1` (stereo not drawn) [Example 50, 8-(5-chloro-thiophene-2-sulphonyl)-1-oxa-2,8-diaza-spiro[4,5]dec-2-ene-3 carboxylic acid (1-naphthalen-2-ylmethyl-pyrrolidin-3-yl)-amide], the “BTX bond, 10 μM, % inhibition” value was 87%. `CCc1ccc(C(=O)N2CCC3(CC2)CC(C(=O)NCc2cccs2)=NO3)cc1` [Example 52, 8-(4-ethyl-benzoyl)-1-oxa-2,8-diaza-spiro[4,5]dec-2-ene-3-carboxylic acid (thiophen-2-ylmethyl)-amide] was tested, and the “BTX bond, 10 μM, % inhibition” value was 63%. `C=CCOC(=O)C(CC(=O)OC(C)(C)C)NC(=O)C1=NOC2(CCN(S(=O)(=O)c3cc(Cl)ccc3Cl)CC2)C1` (stereo not drawn) [Example 53] was tested, and the “BTX bond, 10 μM, % inhibition” value was 47%.

— patent US8557796B2, “Substituted 1-oxa-2,8-diaza-spiro [4,5] dec-2-ene derivatives and related treatment methods” (Gruenenthal GmbH, priority 2001, dated 2013)
